Data: US5434182A (priority 1993, dated 1995)
“And” between values parts separate entries of the source, which are not always exact repeats. Identical values can stand only once. Like-named read-outs stand apart in the source and are kept apart here.

Columns and labels:
VSV [1] = assay: microbe, parasite or virus in culture; assay type: cell-based, vesicular stomatitis virus strain Indiana; settings: for minimal effective concentration: read-out: lowest concentration which reduced the VSV titer by ≥4.0 log10 units
HSV-1 = assay: microbe, parasite or virus in culture; assay type: cell-based, herpes simplex virus type 1 strain MacIntyre; settings: 37° C., 30 min; for log reduction at 2000 µg/mL: 2 mg/ml
Visna virus = assay: microbe, parasite or virus in culture; assay type: cell-based, Visna virus strain K796; settings: 37° C., 30 min; for log reduction at 2000 µg/mL: 2 mg/ml
poliovirus = assay type: cell-based, Poliovirus type 1 strain Chat; settings: 8 mg/ml, 37° C., 30 min; control 10^4.7 TCID50
Group B streptococcus = assay: Inactivation of bacteria by monoglycerides, Group B streptococcus; assay type: cell-based; settings: 2 mg/ml, read-out: Reduction of bacterial concentration, Group B streptococcus
VSV [2] = assay: microbe, parasite or virus in culture; assay type: cell-based, vesicular stomatitis virus strain Indiana; settings: for minimal effective concentration: read-out: Lowest concentration causing ≥3.0 log10 reduction in virus titer
enveloped viruses = assay type: cell-based
[3] = Vesicular stomatitis virus, 0.5 h
[4] = Vesicular stomatitis virus, 0.5 h, read-out: Reduction of virus titer, VSV
[5] = Human alphaherpesvirus 1, 0.5 h, read-out: Reduction of virus titer, HSV-1
[6] = Visna-maedi virus, 0.5 h, read-out: Reduction of virus titer, VV (visna virus)

Compound | reduction of poliovirus titer (poliovirus) | minimal effective concentration (VSV [2]; [3]) | antiviral activity in words (enveloped viruses) | minimal effective concentration (VSV [1]; [3]) | log reduction at 2000 µg/mL (VSV [1]; [4]) | log reduction at 2000 µg/mL (HSV-1; [5]) | log reduction at 2000 µg/mL (Visna virus; [6]) | also measured
CC/C=C\C/C=C\C/C=C\CCCCCCCC(=O)O [Linolenic (18:3), Linolenic] | did not cause a significant reduction of virus titer |  |  |  |  |  |  | Reduction of virus titer, VSV (VSV [1]; 1 mg/ml, 37° C., 30 min): ≥ 4.0 log10; lowest concentration which reduced the VSV titer by ≥4.0 log10 units (VSV [1]; 37° C., 30 min): 1 mg/ml and 3.6 mM; Reduction of virus titer, HSV-1 (HSV-1; 1 mg/ml): ≥ 4.0 log10; Reduction of virus titer, VV (visna virus) (Visna virus; 1 mg/ml): ≥ 3.2 log10
CCCCC/C=C\C/C=C\CCCCCCCC(=O)OC[C@@H](O)CO [Monolinolein (18:2), Monolinolein] |  | 250 µg/mL and 700 µM |  |  |  |  |  | log reduction at 2000 µg/mL (Group B streptococcus): 4.5; log reduction at 250 µg/mL (VSV [2]; [4]): ≥ 4; concentration relative to monocaprin for same reduction in viral titer (VSV [2]; maintenance medium, millimolar): one-third the concentration
CCCCCCCCCCCCCC(=O)OCC(O)CO (stereo not shown) [Monomyristin (14:0), Monomyristin] |  | 2000 µg/mL and 13000 µM | consistently less active |  |  |  |  | log reduction at 2000 µg/mL (VSV [2]; [4]): 3
CCCCCCCCCCCCCC(=O)O [Myristic (14:0), Myristic] | did not cause a significant reduction of virus titer |  | showed activity | 4000 µg/mL and 16000 µM |  |  |  | log reduction at 4000 µg/mL (VSV [1]; [4]): ≥ 4; log reduction at 4000 µg/mL (HSV-1; Human alphaherpesvirus 1, 0.5 h, 4 mg/ml, read-out: Reduction of virus titer, HSV-1): ≥ 4; log reduction at 4000 µg/mL (Visna virus; Visna-maedi virus, 0.5 h, 4 mg/ml, read-out: Reduction of virus titer, VV (visna virus)): 1.7
CCCCCCCC/C=C\CCCCCCCC(=O)O [Oleic (18:1 cis), Oleic] | did not cause a significant reduction of virus titer |  |  | 2000 µg/mL and 7000 µM | ≥ 4 | ≥ 4 | ≥ 3.2 | 
CCCCCC/C=C\CCCCCCCC(=O)O [Palmitoleic (16:1), Palmitoleic] | did not cause a significant reduction of virus titer |  |  | 2000 µg/mL and 15000 µM | ≥ 4 | ≥ 4 | ≥ 3.2 | 
